Assay results published in the supplement of paper PMC10307832.

Assays:
Test in all cases: relative viability (nuclei count vs DMSO), 5 days (fraction); higher = more cells survive
[1] = compound: CC(C)(C)c1nc(-c2cccc(NS(=O)(=O)c3c(F)cccc3F)c2F)c(-c2ccnc(N)n2)s1 [Dabrafenib] + COc1cc2c(Oc3ccc(NC(=O)C4(C(=O)Nc5ccc(F)cc5)CC4)cc3F)ccnc2cc1OCCCN1CCOCC1 [Foretinib] (partner 0.25 µM)
Procedure, shortened: (§1)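 A single step with final 0.05% Triton X-100, 1% formaldehyde and 1 ug/ml Hoechst fixed the cells and stained nuclei 5 days after treatment. Lung cancer cell lines in 1536-well plates had been treated by pin tool the day after seeding with one drug alone or a fixed anchor-drug dose plus five library-drug doses (not always all listed) in √10 steps, and nuclei were counted on 4× images. Relative viability is the ratio of nuclei in treated wells to nuclei in vehicle wells, taken as the median of duplicate plates.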

[2] = compound: CC(C)(C)c1nc(-c2cccc(NS(=O)(=O)c3c(F)cccc3F)c2F)c(-c2ccnc(N)n2)s1 [Dabrafenib] + CS(=O)(=O)CCNCc1ccc(-c2ccc3ncnc(Nc4ccc(OCc5cccc(F)c5)c(Cl)c4)c3c2)o1 [Lapatinib] (partner 2 µM)
Procedure, shortened: as §1

[3] = compound: NC(=O)c1ccc(N(C(N)=O)c2c(F)cccc2F)nc1-c1ccc(F)cc1F [VX-702] + COc1cccc2cc(-c3nc([C@H]4CC[C@H](C(=O)O)CC4)n4ncnc(N)c34)[nH]c12 [OSI-027] (partner 0.5 µM)
Procedure, shortened: as §1

[4] = compound: NC(=O)c1ccc(N(C(N)=O)c2c(F)cccc2F)nc1-c1ccc(F)cc1F [VX-702] + NC(=O)Nc1cc(-c2cccc(F)c2)sc1C(=O)N[C@H]1CCCNC1 [AZD7762] (partner 0.2 µM)
Procedure, shortened: as §1

Row | Cell Line | relative viability ([1]; first compound 0.003 µM) | relative viability ([1]; first compound 0.009487 µM) | relative viability ([1]; first compound 0.03 µM) | relative viability ([1]; first compound 0.09487 µM) | relative viability ([1]; first compound 0.3 µM) | relative viability ([2]; first compound 0.003 µM) | relative viability ([2]; first compound 0.009487 µM) | relative viability ([2]; first compound 0.03 µM) | relative viability ([2]; first compound 0.09487 µM) | relative viability ([2]; first compound 0.3 µM) | relative viability ([3]; first compound 0.02 µM) | relative viability ([3]; first compound 0.2 µM) | relative viability ([3]; first compound 0.6325 µM) | relative viability ([3]; first compound 2 µM) | relative viability ([4]; first compound 0.02 µM) | relative viability ([4]; first compound 0.2 µM) | relative viability ([4]; first compound 0.6325 µM) | relative viability ([4]; first compound 2 µM)
1 | NCI-H460 | 0.949 | 1.01 | 0.961 | 0.933 | 0.993 | 1.04 | 1.03 | 1.05 | 0.925 | 0.83 | 0.712 | 0.644 | 0.693 | 0.55 | 0.732 | 0.585 | 0.721 | 0.638
2 | NCI-H1993 | 0.762 | 0.852 | 0.64 | 0.71 | 0.901 | 0.696 | 0.729 | 0.754 | 0.713 | 0.882 | 0.516 | 0.518 | 0.563 | 0.579 | 0.434 | 0.694 | 0.736 | 0.65
3 | HCC-78 | – | 0.633 | 0.537 | 0.632 | 0.581 | – | 0.697 | 0.702 | 0.754 | 0.838 | 0.364 | 0.358 | 0.311 | 0.32 | 0.541 | 0.589 | 0.774 | 0.798
4 | LXF-289 | 1.01 | 1.03 | 0.993 | 0.931 | 1.01 | 0.867 | 0.907 | 1.11 | 1 | 1.09 | 0.786 | 0.784 | 0.772 | 0.683 | 1.15 | 1.14 | 1.15 | 1.16
5 | 201T | 1.11 | 1.2 | 1.12 | 1.14 | 1.26 | 1.06 | 1.04 | 1.01 | 1.03 | 1.09 | 0.732 | 0.499 | 0.69 | 0.735 | 0.585 | 0.561 | 0.509 | 0.449
6 | NCI-H1437 | 1.26 | 1.27 | 1.25 | 1.23 | 1.26 | 0.687 | 0.756 | 0.911 | 0.785 | 0.816 | 0.885 | 0.843 | 0.977 | 0.987 | 1.06 | 1.16 | 1.23 | 1.16
7 | HCC-827 | 1.11 | 1.04 | 0.876 | – | 1.03 | 0.133 | 0.228 | 0.185 | 0.185 | 0.186 | 0.828 | 0.839 | 0.688 | 0.273 | 0.2 | 0.226 | 0.215 | 0.137
8 | HARA | 0.907 | 0.906 | – | 0.78 | 0.972 | 0.648 | 0.683 | 0.565 | 0.751 | 0.955 | 0.458 | 0.412 | 0.446 | 0.479 | 0.313 | – | 0.306 | 0.331
9 | NCI-H838 | 1 | 1.06 | 0.801 | 0.923 | 1.1 | 0.816 | 1.17 | 0.871 | 0.855 | 1.1 | 0.394 | 0.356 | 0.448 | 0.409 | 0.937 | 0.912 | 1.05 | 0.903
10 | NCI-H2085 | 0.984 | 0.975 | 0.981 | 0.899 | 1.08 | 0.694 | 0.821 | 0.58 | 0.74 | 0.784 | 0.87 | 0.636 | 0.726 | 0.627 | 1.04 | 1.01 | 1.06 | 1.03
11 | NCI-H322M | – | 1.19 | 0.75 | 0.879 | 0.945 | – | 0.657 | – | 0.584 | 0.559 | 0.567 | 0.517 | 0.566 | 0.62 | 0.544 | 0.558 | 0.537 | 0.499
12 | NCI-H1915 | 1.2 | 1.08 | 1.09 | 0.87 | 0.949 | 1.04 | 0.985 | 0.781 | 0.654 | 0.673 | 0.642 | 0.587 | 0.595 | 0.67 | 0.697 | 0.728 | 0.712 | 0.718
13 | EPLC-272H | 0.671 | 0.811 | 0.619 | 0.587 | 0.738 | – | 0.882 | 1 | 0.765 | 1.18 | 0.298 | 0.304 | 0.279 | 0.248 | 0.0171 | 0.202 | 0.234 | 0.211
14 | NCI-H1734 | – | 0.963 | 0.73 | 0.811 | 0.965 | – | 1.02 | 0.629 | 0.747 | 0.785 | 0.635 | 0.591 | 0.527 | 0.45 | 0.561 | 0.448 | 0.521 | 0.465
15 | NCI-H2405 | – | 0.985 | – | 0.949 | 1.07 | – | 0.804 | – | 0.853 | 0.937 | 0.677 | 0.641 | 0.544 | 0.668 | 0.822 | 0.766 | 0.784 | 0.826
16 | LK-2 | 1.14 | 1.17 | – | 1.28 | 1.26 | 0.885 | 1.02 | – | 0.902 | 0.985 | 0.21 | 0.211 | 0.167 | 0.183 | 0.312 | 0.234 | 0.343 | 0.292
17 | NCI-H1666 | 0.907 | 0.944 | 0.951 | 0.969 | 1.1 | 0.547 | – | 0.623 | 0.629 | 0.745 | 0.937 | – | 0.789 | 0.635 | 0.925 | 0.837 | 0.922 | 0.693
18 | CAL-12T | 1.07 | 1.09 | 1.11 | 1.11 | 1.44 | 0.709 | 0.74 | 0.683 | 0.639 | 0.789 | 0.624 | 0.715 | 0.661 | 0.506 | 0.517 | 0.644 | 0.58 | 0.625
